Data taken from publication PMC3629230, “Permeability Enhancers Dramatically Increase Zanamivir Absolute Bioavailability in Rats: Implications for an Orally Bioavailable Influenza Treatment” (PLoS ONE, 2013).
Several values for one entry are separate records, joined by “and”; a condition that tells them apart may be missing. Identical values can stand only once. Entries after “also recorded” stand apart in the source; their conditions may differ.

Tests used:
[1] = Pharmacokinetics and absolute bioavailability after intraduodenal administration in rats; conditions: for Cmax / Tmax / AUC(0-t) / AUC(0-inf) / half-life / bioavailability: male, Sprague-Dawley, rat, plasma; for AUC(0-t): AUClast; for half-life: t1/2, intraduodenal; for bioavailability: other: intraduodenal, absolute, vs 1.5 mg intravenous
Text: Male Sprague-Dawley rats (Hilltop Labs, Scottdale, PA), 3 animals per treatment group, 250–350 grams in weight, were fitted with a jugular vein cannula (JVC). Animals intended for intraduodenal dosing were also fitted with one or more intraduodenal cannula (IDC) and those intended for intravenous dosing were fitted with a second JVC. Food was withheld from the animals for a minimum of twelve hours prior to test article administration and was returned approximately four hours post-dose. Water was supplied ad libitum.
Intraduodenal doses composed of 1.5 mg of zanamivir and varying amounts of an enhancer (glycerol or Capmul MCM L8) were injected directly into the duodenum via the IDC. To determine absolute bioavailability of the intraduodenal administered drug, intravenous dosing was conducted by the injection of 1.5 mg of zanamivir in 200 µL of PBS through a JVC. For some experiments, the absorption enhancer was administered intraduodenally 2 hr prior to administering 1.5 mg of zanamivir in PBS through a second IDC. Each intraduodenal dose was followed with the introduction of a small air bubble (∼10 µL) in the cannula followed by a flush of 125 µL of PBS to ensure the dose was given in full. The volume of PBS used for cannula flush was consistent across the treatment groups. The cannula was tied to prevent the PBS remaining in the cannula from entering the duodenum.
Blood samples collected via the JVC, approximately 400 µL each, were obtained at 2 min, 5 min, 15 min, 30 min, 60 min, 90 min, and 120 min, with sodium heparin used as an anti-coagulant. Each sample was placed into a chilled tube containing the anticoagulant and kept on ice until centrifugation at 4°C, 3,000× g, for 5 min. The plasma supernatants were stored at −70°C until LC-MS analysis.
Dosing solution samples were assayed by liquid chromatography-mass spectrometry (LC-MS/MS) using electrospray ionization. The chromatographic system consisted of Perkin Elmer series 200 micropumps and autosampler equipped with a Waters Atlantic® HILIC Silica […], 2.1×50 mm column. The mass spectrometer was a PE Sciex API 4000 with electrospray interface in multiple reaction monitoring mode. […] Stock solutions (1 mg/mL zanamivir) were prepared in water. Standards (eight concentrations) were prepared in the appropriate matched matrix (HBSSg or Sprague-Dawley rat plasma containing sodium heparin) and diluted 50-fold with methanol. Experimental samples were identically treated.

[2] = cited from earlier work
Caco-2 cell monolayers = experiment: Unidirectional (A-to-B) permeability of zanamivir across Caco-2 cell monolayers with and without excipients; format: in vitro ADME; conditions: A-to-B, zanamivir 15 µg/mL
Procedure: Caco-2 cells were obtained from American Type Culture Collection (Rockville, MD). Stock cultures were maintained in flasks with DMEM medium supplemented with 10% FBS, 1% non-essential amino acids, 1 mmol/L sodium pyruvate, 100 IU/mL penicillin, and 100 µg/mL streptomycin in a humidified incubator (37°C, 5% CO2). Cells were harvested by trypsinization and seeded at 60,000 cells/cm^2 onto Costar Transwell® 12-well dual-chamber plates with collagen-coated, microporous polycarbonate membranes (1.13 cm^2 insert area, 0.4 µm pore size; Corning Life Sciences, Acton, MA) for permeability studies. The culture medium was changed three times per week.
Caco-2 cell monolayers that had grown for at least 20 days were subjected to batch quality control testing in which permeation rates were measured for atenolol, digoxin, estrone-3-sulfate, lucifer yellow (LY), and propranolol. In addition, the transepithelial electrical resistance (TEER) across each experimental monolayer was tested prior to an experiment.
Unidirectional (A-to-B) permeability of zanamivir was determined at 15 µg/mL in the absence and presence of varying concentrations of excipients in Caco-2 cell monolayers. The assay buffer was Hanks' balanced salt solution (HBSS) supplemented with 10 mM 4-(2-hydroxyethyl)-1-piperazineethanesulfonic acid (HEPES) and 15 mM D-glucose (HBSSg), pH 7.4. The dosing solutions on the apical side (0.5 mL) contained either zanamivir and excipients at each concentration being tested or zanamivir only (n = 4), while the receiver buffer in the bottom well (1.5 mL) was always excipient-free. The Caco-2 cell monolayers were incubated for 120 min in a humidified incubator (37°C, 5% CO2) after dosing in the apical chambers. Aliquots (200 µL each) of receiver buffer were sampled at 60 min, 90 min, and 120 min after dosing, with replacement by the same volume of blank buffer (at 60 min and 90 min). Donors were sampled at 0 and 120 min.
Experimental samples were identically treated.

[3] = intraduodenal, 1.5 mg/animal in PBS, Capmul MCM L8 given 2 hr prior
[4] = intraduodenal, 1.5 mg/animal in PBS, glycerol given 2 hr prior
[5] = intraduodenal, 1.5 mg/animal, 50 µL vehicle Capmul MCM L8
[6] = intraduodenal, 1.5 mg/animal, 50 µL vehicle PBS
[7] = intraduodenal, 1.5 mg/animal, 50 µL vehicle glycerol
[8] = 0.75 mg, Figure 5 experiment, intraduodenal, 0.75 mg zanamivir, 50 µL Capmul MCM L8
[9] = 1.5 mg, intraduodenal, 1.5 mg/animal in PBS, Capmul MCM L8 given 2 hr prior
[10] = 1.5 mg, intraduodenal, 1.5 mg/animal in PBS, glycerol given 2 hr prior
[11] = 1.5 mg, intraduodenal, 1.5 mg/animal, 50 µL vehicle Capmul MCM L8
[12] = 1.5 mg, intraduodenal, 1.5 mg/animal, 50 µL vehicle PBS
[13] = 1.5 mg, intraduodenal, 1.5 mg/animal, 50 µL vehicle glycerol
[14] = 1.5 mg, Figure 5 experiment, intraduodenal, 1.5 mg zanamivir, 50 µL Capmul MCM L8
[15] = 3 mg, Figure 5 experiment, intraduodenal, 3.0 mg zanamivir, 50 µL Capmul MCM L8

CC(=O)N[C@H]1[C@H]([C@H](O)[C@H](O)CO)OC(C(=O)O)=C[C@@H]1N=C(N)N [Zanamivir, zanamivir]
Absolute bioavailability relative to negative control ([1]; both enhancers (glycerol, Capmul MCM L8) given 2 hr prior to zanamivir): equivalent to that of the negative control
Absorption enhancement ([1]; enhancer (glycerol or Capmul MCM L8) given intraduodenally 2 hr prior to 1.5 mg zanamivir in PBS): No absorption enhancement; also recorded: no enhanced absorption
Increase of absolute bioavailability compared to PBS ([1]; intraduodenal, 1.5 mg zanamivir in 50 µL glycerol): 4.7 fold
Dose-normalized AUClast [1, 3]: 12.7 kg·ng·h/mL/mg
Dose-normalized AUC∞ [1, 3]: 13 kg·ng·h/mL/mg
Dose-normalized AUClast [1, 4]: 21.1 kg·ng·h/mL/mg
Dose-normalized AUC∞ [1, 4]: 29.1 kg·ng·h/mL/mg
Dose-normalized AUClast [1, 5]: 715 kg·ng·h/mL/mg
Dose-normalized AUC∞ [1, 5]: 753 kg·ng·h/mL/mg
Dose-normalized AUClast [1, 6]: 30.6 kg·ng·h/mL/mg
Dose-normalized AUC∞ [1, 6]: 46.6 kg·ng·h/mL/mg
Dose-normalized AUClast [1, 7]: 145 kg·ng·h/mL/mg
Dose-normalized AUC∞ [1, 7]: 153 kg·ng·h/mL/mg
Cmax [1, 8]: 1430 ng/mL
Tmax [1, 8]: 4.8 min
AUC(0-t) [1, 9]: 66.1 ng·h/mL
AUC(0-t) [1, 10]: 112 ng·h/mL
AUC(0-t) [1, 11]: 3800 ng·h/mL
AUC(0-t) [1, 12]: 162 ng·h/mL
AUC(0-t) [1, 13]: 754 ng·h/mL
AUC(0-inf) [1, 9]: 69.8 ng·h/mL
AUC(0-inf) [1, 10]: 156 ng·h/mL
AUC(0-inf) [1, 11]: 4000 ng·h/mL
AUC(0-inf) [1, 12]: 244 ng·h/mL
AUC(0-inf) [1, 13]: 781 ng·h/mL
Cmax ([1]; 1.5 mg, Figure 4 experiment, intraduodenal, 1.5 mg zanamivir, 25 µL Capmul MCM L8): 1650 ng/mL
Cmax ([1]; 1.5 mg, Figure 4 experiment, intraduodenal, 1.5 mg zanamivir, 50 µL Capmul MCM L8): 2120 ng/mL
Cmax ([1]; 1.5 mg, Figure 4 experiment, intraduodenal, 1.5 mg zanamivir, 75 µL Capmul MCM L8): 2570 ng/mL
Cmax [1, 14]: 3920 ng/mL
Cmax [1, 9]: 48.6 ng/mL
Cmax [1, 10]: 77.4 ng/mL
Cmax [1, 11]: 7230 ng/mL
Cmax [1, 12]: 134 ng/mL
Cmax [1, 13]: 948 ng/mL
half-life ([1]; 1.5 mg, 1.5 mg/animal in PBS, Capmul MCM L8 given 2 hr prior): 51.6 min
half-life ([1]; 1.5 mg, 1.5 mg/animal in PBS, glycerol given 2 hr prior): 74.4 min
half-life ([1]; 1.5 mg, 1.5 mg/animal, 50 µL vehicle Capmul MCM L8): 29.4 min
half-life ([1]; 1.5 mg, 1.5 mg/animal, 50 µL vehicle PBS): 49.8 min
half-life ([1]; 1.5 mg, 1.5 mg/animal, 50 µL vehicle glycerol): 17.4 min
Tmax [1, 14]: 4.8 min
Tmax ([1]; 1.5 mg, intraduodenal, 1.5 mg zanamivir mixed with Capmul MCM L8): 5 min
Tmax [1, 9]: 60 min
Tmax [1, 10]: 34.8 min
Tmax [1, 11]: 4.8 min
Tmax [1, 12]: 30 min
Tmax [1, 13]: 30 min
Cmax ([1]; 1.5 mg/animal, intraduodenal, 50 µL vehicle Capmul MCM L8): > 7200 ng/mL
Cmax [1, 15]: 7000 ng/mL
Tmax [1, 15]: 8.4 min
bioavailability [1, 9]: 0.66%
bioavailability [1, 10]: 1.1%
bioavailability [1, 11]: 37.7%
bioavailability [1, 12]: 1.59%
bioavailability [1, 13]: 7.53%
Oral bioavailability [2]: under 2%
Increase in apparent permeability coefficient (Papp) compared to no-enhancer control (Caco-2 cell monolayers; 0.25% Capmul MCM L8, pH 7.4): > 5 fold and 5.2 fold
Increase in apparent permeability coefficient (Papp) compared to no-enhancer control (Caco-2 cell monolayers; 5% glycerol, pH 7.4): > 5 fold and 5.6 fold
